Test results published in patent US20070009961A1, “Identification of targeting component of herbal medicines from simplified HPLC spectrum using after flowing through immobilized receptor (AFTIR) method” (Academia Sinica, priority 2005, published 2007).
Like-named read-outs stand apart in the source and are kept apart here. Values belong to the molecule of their own block, whether it stands above or below them.

Experiments:
[1] = system: CD28-independent IL-2 response of Jurkat cells; test: Jurkat T-cell IL-2 secretion (ELISA), CD28-independent stimulation (PMA plus ionomycin); format: cell-based, human
Experimental: Stimulation of T-cell. Jurkat leukemic T cells were maintained in a humidified atmosphere of 5% CO2/95% air at 37° C. in RPMI-1640 medium (HyClone, Utah, USA) including penicillin, streptomycin and 10% heat-inactivated FBS. Two modes of activations were used for the present experiments: anti-CD3 plus anti-CD28 (CD28-dependent stimulation) and PMA plus ionomycin (CD28-independent stimulation). For experiment of CD28-dependant stimulation, flat-bottom 96-well plates were coated with 10 μg/ml of anti-CD3 for 24 h at 4° C. Wells anti-CD3 were washed twice with PBS. After washing, the unbounded anti-CD3 was removed. Jurkat T-cells (200 μl 2×10^6 cells/ml) with soluble anti-CD28 (1 μg/ml) were then added into the wells. The cells were activated by anti-CD3 already existing in the wells. Upon the activation, the cell solution was stayed for 24 h. The supernatant (100 μl) of cell solution was then used for the measurement of IL-2 by enzyme-linked immuno-sorbent assay (ELISA). For experiment of CD28-indepentant stimulation, 200 μl Jurkat cell (5×10^5 cell/ml) were incubated with PMA (50 nM)/lonomycin (1 μg/ml) for 24 h. 100 μl supernatant was then used for IL-2 measurement by ELISA. […] IL-2 concentration of T-cell was determined by following the instruction from manufacturer (Biosource; California, US). […] Concentration of IL-2 was then measured with microplate reader. […]

[2] = system: CD28 dependent IL-2 expression in Jurkat cells; test: Jurkat T-cell IL-2 secretion (ELISA), CD28-dependent stimulation (anti-CD3 plus anti-CD28); format: cell-based, human
Experimental: Stimulation of T-cell. Jurkat leukemic T cells were maintained in a humidified atmosphere of 5% CO2/95% air at 37° C. in RPMI-1640 medium (HyClone, Utah, USA) including penicillin, streptomycin and 10% heat-inactivated FBS. Two modes of activations were used for the present experiments: anti-CD3 plus anti-CD28 (CD28-dependent stimulation) and PMA plus ionomycin (CD28-independent stimulation). For experiment of CD28-dependant stimulation, flat-bottom 96-well plates were coated with 10 μg/ml of anti-CD3 for 24 h at 4° C. Wells anti-CD3 were washed twice with PBS. After washing, the unbounded anti-CD3 was removed. Jurkat T-cells (200 μl 2×10^6 cells/ml) with soluble anti-CD28 (1 μg/ml) were then added into the wells. The cells were activated by anti-CD3 already existing in the wells. Upon the activation, the cell solution was stayed for 24 h. The supernatant (100 μl) of cell solution was then used for the measurement of IL-2 by enzyme-linked immuno-sorbent assay (ELISA). For experiment of CD28-indepentant stimulation, 200 μl Jurkat cell (5×10^5 cell/ml) were incubated with PMA (50 nM)/lonomycin (1 μg/ml) for 24 h. 100 μl supernatant was then used for IL-2 measurement by ELISA. […] The culture supernatants in both modes were harvested after 24h incubation and then used for the measurements of IL-2. IL-2 measurement was done using the commercial available ELISA kit (Biosource; California, US). The details how to measure the concentration of IL-2 after T-cell is activated is shown below. IL-2 ELISA assay. IL-2 concentration of T-cell was determined by following the instruction from manufacturer (Biosource; California, US). A 96-well flat-bottom plate was coated with anti-IL-2 mAb (100 μl at 4 μg/ml) in phosphate-buffered saline (PBS; pH 7.3) at room temperature overnight. The plate was then washed with PBS containing 0.05% Tween 20 (PBS-T) three times. Subsequently, the plate was incubated with a blocking solution containing 1% bovine serum albumin in PBS for more than 1 hr. After washing by PBS-T, 100 μl supernatant mixed with biotinylated anti-IL-2 detection antibodies (50 μl at 12.5 ng/ml) was added into each well and stay for 2 hr. After washing, 100 μl streptavidin horseradish peroxidase (1/2000 dilution of a 1.25 mg/ml solution) was added and the solution was incubated for 30 min at room temperature. After washing, 100 μl substrate solution containing 1/1 mixture of H2O2 and tetramethylbenzidine was added and the solution was incubated for 25min at room temperature. The solution reaction involving the stimulated sample was ceased by the addition of 100 μl stop solution (1M H2SO4). Concentration of IL-2 was then measured with microplate reader. The amount of IL-2 was indicated by the relative percentage ([…] of IL-2 is defined as 100%). […]

[3] = target: T1, CD28-mulg (extracellular domain of human CD28 fused to murine IgG2a Fc), immobilized on CM5 chip (Homo sapiens, UniProt P10747); test: Surface plasmon resonance (BIAcore) binding to chip immobilised CD28 / AFTIR
T1 construct: soluble fusion protein consisting of the extracellular (134 aa) domain of human CD28; purchased ID Labs Inc; host or cells: CHO transfectants
Description: Receptors and proteins. Human CD28-mulg and CD80-mulg fusion proteins were purchased from ID Labs Inc. CD28-mulg is a soluble fusion protein consisting of the extracellular (134 aa) domain of human CD28 fused to murine IgG2a Fc (233 aa). CD80-mulg is a soluble fusion protein consisting of the extracellular (173 aa) domain of human CD80 fused to murine IgG2a Fc (232 aa). Both were purified from tissue culture supernatant of CHO transfectants by protein A and size exclusion chromatography. Anti-human CD28 antibody and anti-human CD3 antibody were purchased from BioLegend. In the experiments, the quantity of anti-CD28 and CD80 used is only around 2% the quantity of CD28 immobilized.
Surface plasmon resonance analysis. BIAcore 3000 (Biacore, Uppsala, Sweden) was employed for real-time biospecific interaction analysis. Binding analysis was performed at 25° C. with a flow rate of 10 μl/min. In general, proteins can be immobilized on the layer of carboxylated dextran in CM5 sensor chip (research grade; Biacore) by amine coupling. With each injection, samples were diluted in the running buffer HBS (10 mM HEPES, pH 7.4, 150 mM NaCl, 3.4 mM EDTA, 0.005% surfactant P20) to a final concentration of 15 to 30 μM. After each injection, flow-cell can be regenerated by flowing though the cell with the buffer containing 50 mM NaOH. Extracts were injected at different concentrations from 1.9 μM to 60 μM. The binding constant between immobilized receptor (imm-CD28) and ligand was determined using BIAevaluation 3.1 software (Biacore).
CD28-mulg, a soluble fusion protein consisting of the extracellular (134 aa) domain of human CD28 fused to murine IgG2a Fc (233 aa), was immobilized to dextran matrix on the sensor chip surface, via covalent coupling of primary amines (—NH2). In this report, the term CD28 will be used as shorthand for CD28-mulg. […]
The RU as shown in FIGS. 5b-5d is the actual RU subtracted by the “background RU”. […] Affinity binding constants (1/KD) can be obtained from KD, where KD is calculated from Scatchard plots. […]

[4] = target: T2, CD28-mulg, soluble fusion protein consisting of the extracellular (134 aa) domain of human CD28 fused to … (human; murine, UniProt P10747 19-152); test: SPR, CD28-mulg on CM5 chip
T2 construct: extracellular domain; Bought from ID Labs Inc; purified from CHO transfectant supernatant; Coupled by primary amines to a CM5 sensor chip in all assays; also called imm-CD28; immobilized CD28; not shown: murine IgG2a Fc (233 aa)

- ability to bind CD28 (peak in HPLC profile after AFTIR) ([3]; bound CEE washed off the chip and profiled with HPLC): can bind CD28
Molecule: O=C(/C=C/c1ccc(O)c(O)c1)O[C@@H]1C[C@](O)(C(=O)O)C[C@@H](O)[C@H]1O [C1, chlorogenic acid (5-O-caffeoylquinic acid)]
- effect on IL-2 response (in words) [1]: unable to modulate
- effect on IL-2 response (in words) [2]: linearly reduces IL-2 response
- effect on IL-2 response (in words) ([2]; listed as Chlorogenic acid): downregulates CD28 dependent interleukin-2 (IL-2) expression
- effect on IL-2 response (in words) ([2]; listed as chlorogenic acid): downregulating CD28 dependent IL-2 expression
- downregulation of IL-2 secretion response ([2]; normalized to 100%): −53%

- binding efficiency [3]: > 90%
- binding capacity ΔR on immobilised CD28 ([3]; SPR, 10 μg/ml ligand): ~120 RU
Molecule: CD80: soluble fusion protein: extracellular (173 aa) domain of human CD80 fused to murine IgG2a Fc

- ratio of binding receptor:ligand (mole:mole) [4]: ~0.92 mole CD80 per mole imm-CD28
B1: CD80-mulg, soluble fusion protein consisting of the extracellular (173 aa) domain of human CD80 fused to murine IgG2a Fc (232 aa) (Fc fusion, UniProt P33681 35-242, looked up)
chain: VIHVTKEVKEVATLSCGHNVSVEELAQTRIYWQKEKKMVLTMMSGDMNIWPEYKNRTIFDITNNLSIVILALRPSDEGTYECVVLKYEKDAFKREHLAEVTLSVKADFPTPSISDFEIPTSNIRRIICSTSGGFPEPHLSWLENGEELNAINTTVSQDPETELYAVSSKLDFNMTTNHSFMCLIKYGHLRVNQTFNWNTTKQEHFPDN
notes: extracellular domain; Bought from ID Labs Inc; purified from CHO transfectant supernatant; Used as the soluble analyte in SPR; also called Human CD80-mulg; not shown: murine IgG2a Fc (232 aa)
